Results on 10 compounds are retold here after ChEMBL document CHEMBL1201862, “PubChem BioAssay data set” (2004).

Test systems include SF-268; HCT-116; SNB-75; RXF 393; IGROV-1; OVCAR-3; TK-10; ACHN; OVCAR-8; NCI-H226; BT-549; A498; EKVX; U-251; MDA-N; SR; SW-620; OVCAR-4; HOP-92; HL-60.
Assay in all cases: NCI tumour cell line growth inhibition, 48 h

SMILES strings stand for the structures.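 1) Cells in 96-well plates. 2) Compound, 48 h, 5 concentrations. 3) Linear interpolation between surrounding doses. 4) Unreached endpoint = highest concentration. GI50: concentration for 50% inhibition of growth.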 Activity calls are given as the source filed them. Rule as the data show it: active = GI50 up to about 1.1 µM and inactive = higher. A value given as a limit tells only on which side of the number the result lay.

`COc1ccc2c(ccc3c(COC(=O)NC(C)C)c(COC(=O)NC(C)C)n(C)c32)c1`: the GI50 was 5.19 µM (inactive) in the experiment with SF-268; 6.04 µM (inactive) in the experiment with HCT-116; 4.6 µM (inactive) in the experiment on SNB-75; 9.02 µM (inactive) with RXF 393; 4.13 µM (inactive) with IGROV-1; 12.7 µM (inactive) in the experiment on OVCAR-3. In addition, the GI50 was 11.2 µM (inactive) in the experiment with TK-10; 1.81 µM (inactive) in the experiment with ACHN; 5.9 µM (inactive) in the experiment with OVCAR-8; 3.08 µM (inactive) in the experiment with NCI-H226; 11.9 µM (inactive) in the experiment on BT-549; 7.33 µM (inactive) in the experiment with A498. In addition, the GI50 in the experiment with EKVX was 16.4 µM (inactive); in the experiment with U-251 it was 15.1 µM (inactive); in the experiment with MDA-N, 12.3 µM (inactive); in the experiment on SR, 0.655 µM (active); with SW-620 it was 11.5 µM (inactive); in the experiment on OVCAR-4 it was 12.4 µM (inactive). The GI50 in the experiment on HOP-92 is 11.2 µM (inactive).

Take `COc1ccccc1Nc1nc(N)nc(N)c1N=O`: the GI50 is > 100 µM (inactive) in the experiment on SF-268; > 100 µM (inactive) in the experiment with HCT-116; > 100 µM (inactive) in the experiment with HL-60; > 100 µM (inactive) in the experiment with SNB-75; > 100 µM (inactive) in the experiment on RXF 393; 3.91 µM (inactive) in the experiment on IGROV-1. The GI50 in the experiment on TK-10, with ACHN, with OVCAR-8, with NCI-H226, with BT-549 and in the experiment on A498 was > 100 µM (inactive) throughout. The GI50 in the experiment with EKVX, in the experiment with U-251, in the experiment with MDA-N, with SR, in the experiment on SW-620 and with OVCAR-4 was > 100 µM (inactive) in each case. Also, the GI50 with HOP-92 was > 100 µM (inactive).

Consider `CC(C)=CCc1cc(/C=C/C(=O)O)cc(CC=C(C)C)c1O` [ARTEPILLIN], for which the GI50 is > 100 µM (inactive) in the experiment with SF-268; > 100 µM (inactive) with HCT-116; > 100 µM (inactive) with HL-60; 73.5 µM (inactive) in the experiment with IGROV-1; > 100 µM (inactive) with OVCAR-3; > 100 µM (inactive) in the experiment with TK-10. Besides, the GI50 in the experiment with ACHN was > 100 µM (inactive); in the experiment with OVCAR-8 it was > 100 µM (inactive); in the experiment with BT-549, > 100 µM (inactive); with A498 it was > 100 µM (inactive); with EKVX, 81.7 µM (inactive); in the experiment with U-251 it was > 100 µM (inactive). The GI50 in the experiment on MDA-N is > 100 µM (inactive); in the experiment on SR, > 100 µM (inactive); with SW-620, > 100 µM (inactive); in the experiment on OVCAR-4, > 100 µM (inactive); in the experiment on HOP-92, 19.7 µM (inactive).

Turning to `C[C@H](N)C(=O)Nc1ccc(-c2nc3ccccc3s2)cc1`, the GI50 was 41.3 µM (inactive) in the experiment with SF-268; 15.2 µM (inactive) in the experiment with HCT-116; 18 µM (inactive) with SNB-75; 29.3 µM (inactive) in the experiment with RXF 393; 15.2 µM (inactive) in the experiment on IGROV-1; 18.3 µM (inactive) in the experiment on OVCAR-3. Also, the GI50 was 24.5 µM (inactive) in the experiment with TK-10; 17.4 µM (inactive) in the experiment with ACHN; 25.6 µM (inactive) in the experiment with OVCAR-8; 26.8 µM (inactive) in the experiment with NCI-H226; > 100 µM (inactive) in the experiment with BT-549; 30.1 µM (inactive) in the experiment on A498. In addition, the GI50 with EKVX was 11.8 µM (inactive); in the experiment with U-251, 16.9 µM (inactive); in the experiment on MDA-N it was 18.7 µM (inactive); in the experiment on SR, 15.1 µM (inactive); with SW-620, 17.2 µM (inactive); with OVCAR-4, 16.4 µM (inactive). In the experiment on HOP-92, the GI50 is 26.4 µM (inactive).

As for `CCOC(=O)c1c(N2CCOCC2)[nH]c(=O)c(C(c2ccc(Cl)c([N+](=O)[O-])c2)c2c(O)c(C(=O)OCC)c(N3CCOCC3)[nH]c2=O)c1O`, the GI50 is 44.2 µM (inactive) in the experiment on SF-268; 20.3 µM (inactive) in the experiment on HCT-116; 48.1 µM (inactive) in the experiment with SNB-75; > 100 µM (inactive) in the experiment on RXF 393; 17.2 µM (inactive) in the experiment on OVCAR-3; 39.9 µM (inactive) in the experiment on TK-10. Besides, the GI50 was 55.1 µM (inactive) with ACHN; 18.4 µM (inactive) in the experiment with OVCAR-8; > 100 µM (inactive) in the experiment with NCI-H226; 24.4 µM (inactive) in the experiment on BT-549; > 100 µM (inactive) in the experiment on A498; > 100 µM (inactive) in the experiment on EKVX. For the same compound, the GI50 in the experiment on U-251 was 19.6 µM (inactive); with MDA-N, 26.1 µM (inactive); with SR, 36.1 µM (inactive); in the experiment on SW-620 it was 23.4 µM (inactive); with OVCAR-4, 42.8 µM (inactive); in the experiment with HOP-92, 23.9 µM (inactive).

With `COc1cc(OC)cc(-n2c(N)c(-c3nc4ccccc4s3)c3ccc([N+](=O)[O-])cc3c2=O)c1`, the GI50 is 57 µM (inactive) with SF-268; 24.9 µM (inactive) in the experiment on HCT-116; 0.208 µM (active) with HL-60; 27.8 µM (inactive) in the experiment with SNB-75; 13.3 µM (inactive) with TK-10; 12.5 µM (inactive) in the experiment with ACHN. The GI50 is 13.3 µM (inactive) with OVCAR-8; 25.7 µM (inactive) in the experiment with NCI-H226; > 100 µM (inactive) in the experiment on BT-549; 28.4 µM (inactive) with A498; 34.1 µM (inactive) in the experiment on U-251; > 100 µM (inactive) in the experiment on MDA-N. The GI50 was 24.3 µM (inactive) with SR, > 100 µM (inactive) in the experiment on SW-620, 17 µM (inactive) with OVCAR-4 and 3.27 µM (inactive) with HOP-92.

As for `CCOC(=O)c1c(N2CCOCC2)[nH]c(=O)c(C(c2c(O)c(C(=O)OCC)c(N3CCOCC3)[nH]c2=O)C(C)C)c1O`, the GI50 in the experiment with SF-268 was > 100 µM (inactive); with HCT-116, > 100 µM (inactive); in the experiment on HL-60 it was > 100 µM (inactive); in the experiment on SNB-75, 22.4 µM (inactive); in the experiment with RXF 393, > 100 µM (inactive); with OVCAR-3, > 100 µM (inactive). In addition, the GI50 in the experiment with TK-10, in the experiment on ACHN, with OVCAR-8, in the experiment on NCI-H226, in the experiment with BT-549 and in the experiment on A498 was > 100 µM (inactive) in each case. The GI50 in the experiment on EKVX, in the experiment on U-251, with MDA-N, with SR, in the experiment with SW-620 and in the experiment with OVCAR-4 was > 100 µM (inactive) each time. Besides, the GI50 with HOP-92 was 80.5 µM (inactive).

In the case of `COCN1C(N)=C(C(=O)OC(C)(C)C)C2=CC(=O)C=CC21C` (centres undefined), the GI50 with SF-268 was 15.8 µM (inactive); in the experiment with HCT-116, 7.83 µM (inactive); in the experiment on HL-60, 14.4 µM (inactive); with SNB-75 it was 19.1 µM (inactive); with RXF 393, 6.25 µM (inactive); in the experiment with IGROV-1 it was 13.1 µM (inactive). Moreover, the GI50 was 13.4 µM (inactive) in the experiment with TK-10; 7.01 µM (inactive) in the experiment on ACHN; 18 µM (inactive) with OVCAR-8; 16.8 µM (inactive) in the experiment with NCI-H226; 4.24 µM (inactive) with BT-549; 20.1 µM (inactive) in the experiment with A498. Further, the GI50 with EKVX is 16.5 µM (inactive); with U-251, 17 µM (inactive); in the experiment on MDA-N, 16.1 µM (inactive); in the experiment on SR, 12.5 µM (inactive); in the experiment on SW-620, 4.99 µM (inactive); in the experiment on OVCAR-4, 13.6 µM (inactive). Moreover, the GI50 in the experiment with HOP-92 was 5.14 µM (inactive).

For `COc1ccc(C(c2ccc3c(c2)OCO3)N2C(=O)CCC2C(=O)O)cc1` (centres undefined), the GI50 in the experiment on SF-268, with HCT-116, with HL-60, in the experiment on SNB-75, with IGROV-1 and with OVCAR-3 was > 100 µM (inactive) in each case. Moreover, the GI50 in the experiment on TK-10, with ACHN, in the experiment on OVCAR-8, with NCI-H226, in the experiment with BT-549 and in the experiment on A498 was > 100 µM (inactive) each time. The GI50 in the experiment on EKVX, in the experiment with U-251, with MDA-N, in the experiment on SR, with SW-620 and in the experiment on OVCAR-4 was > 100 µM (inactive) each time. Moreover, the GI50 in the experiment on HOP-92 is > 100 µM (inactive).

Take `C[As+](C)(c1ccc(Br)c([N+](=O)[O-])c1)c1ccc(Br)c([N+](=O)[O-])c1`: the GI50 in the experiment with SF-268, with HCT-116, in the experiment with SNB-75, in the experiment with RXF 393, in the experiment with IGROV-1 and in the experiment on OVCAR-3 was > 100 µM (inactive) each time. The GI50 in the experiment with TK-10, in the experiment on ACHN, in the experiment on OVCAR-8, with NCI-H226, in the experiment with BT-549 and in the experiment on A498 was > 100 µM (inactive) each time. The GI50 in the experiment on EKVX, with U-251, with MDA-N, in the experiment on SR, in the experiment on SW-620 and in the experiment with OVCAR-4 was > 100 µM (inactive) each time. For the same compound, the GI50 in the experiment on HOP-92 is > 100 µM (inactive).
